Measurements as given in patent US8283366B2, “Derivatives of pyridoxine for inhibiting HIV integrase” (Ambrilia Biopharma, Inc., priority 2010, dated 2012).
pIC50: −log10 of the molar value. Read-outs that look alike come from different tables or passages of the source.

Key:
wild type NL-4.3 = experiment: Multi-cycle infection assay in MT-4 cells, MTT cytoprotection readout; type: cell-based, HIV-1; conditions: read-out: EC50 (nM) multi-cycle
Protocol: The antiviral efficacies of the integrase inhibitor compounds of the invention were evaluated based on EC50 measures obtained from two different in vitro HIV infection assay using cultured MT-4 cells: (1) a multi-cycle infection where cells were infected with wild type NL-4.3) and (2) a single-cycle infection where the cells were infected with a luciferase-bearing, envelope defective (env-) NL-4.3 virus pseudotyped with HIV-1 env (HXBc2.
The incubation period for the multi-cycle infection assay was 6 days. Cell viability (cytoprotection) and EC50 were determined using the colorimetric MTT assay (A. J. Japour et al, Antimicrobial Agents and Chemotherapy, 37, 1095-1101, 1993 and R. Pauwels et al. Journal of Virological Methods, 20, 309-321, 1988).

[1] = target: T1, recombinant HIV-1 integrase (Human immunodeficiency virus type 1 group M subtype B, UniProt P04585); experiment: Integrase strand transfer assay; type: biochemical; conditions: compounds added after assembly, 10% DMSO, read-out: ST IC50
T1 construct: recombinant HIV-1 integrase
Protocol: IC50 was determined for the compounds of the inventions based on data generated in strand transfer assays. The IC50 is a measure of the ability of the compounds tested to inhibit the integration of 3′-processed oligonucleotides by recombinant HIV-1 integrase.
Strand transfer assays were performed essentially as described in Hazuda, D. J.; Felock, P.; Hastings, J. C.; Pramanik, B.; Wolfe, A. J. Virol. 1997, 71, 7005-7011). Donor DNA (1.5 pmol/well), biotinylated on the 5′ end of the strand processed by integrase, was immobilized onto streptavidin-coated microtiter plates. Recombinant integrase (250 ng/well) was assembled onto the immobilized donor oligonucleotide in reaction buffer (20 mM Hepes, pH 7.6, 5 mM B-mercaptoethanol, 50 ug/mL bovine serum albumin) containing 30 mM MnCl2. Excess enzyme was removed, and the complexes were washed extensively prior to the addition of the target DNA substrate. The target DNA (0.75 pmoles/well) substrate was labeled on each 3′ end with FITC. After strand transfer, the FITC-labeled products were detected using an anti-FITC antibody conjugated with alkaline phosphatase (Roche) and a chemi-luminescent substrate (Tropix CSPD with Sapphire II enhancer, Applied Biosystems). The assay was performed in a final concentration of 10% DMSO. To specifically evaluate inhibition of strand transfer, compounds were added after assembly, just prior to the addition of the target DNA.
The results of the integrase strand transfer assay are reported as IC50 values. IC50 values were determined using a sigmoidal dose-response equation. The formula used for calculating % inhibition was: % Inhibition=[1−(sample counts/average of positive control)]*100.

NL4.3 virus = experiment: Multi-cycle antiviral activity without and with human serum, p24 ELISA; conditions: for Fold-change with HS: EC50 with 40% HS versus 10% FBS alone; for EC50: Human immunodeficiency virus 1, 144 h
Protocol: The multi-cycle antiviral activity in the absence and presence of human serum was determined by p24 ELISA measurement after 6 days of NL4.3 virus infection.

[2] = Human immunodeficiency virus 1, MT4, 144 h, MT-4 cells, 6 days incubation, MTT
[3] = read-out: EC50 (uM) 10% FBS + 40% HS

| SMILES | EC50 (wild type NL-4.3; [2]) [nM] | pIC50 [1] | further results |
| --- | --- | --- | --- |
| Cc1c(/C(=N/O)c2ccc(F)cc2)cnc(C(=O)NO)c1O [Example 10, (E)-5-((4-fluorophenyl)(hydroxyimino)methyl)-N,3-dihydroxy-4-methylpicolinamide] | 49 |  |  |
| O=C(NO)c1ncc([C@@H](O)c2ccc(F)c(Cl)c2)c(CO)c1O [Example 11, (S)-5-((3-Chloro-4-fluorophenyl)(hydroxy)methyl)-N,3-dihydroxy-4-(hydroxymethyl)picolinamide] | 2 | 7.64 | Fold-change with HS (NL4.3 virus): 1; EC50 (NL4.3 virus; read-out: EC50 (uM) 10% FBS): 0.001 µM; EC50 (NL4.3 virus; [3]): 0.001 µM |
| Cc1c(Cc2ccc(F)cc2)cnc(C(=O)NO)c1O [Example 7, 5-(4-fluorobenzyl)-N,3-dihydroxy-4-methylpicolinamide] | 21 |  |  |
| O=C(O)C(O)=CC(=O)c1cc(OCc2ccccc2)cc(OCc2ccccc2)c1 [Example L-708906, reference compound] |  | 7.35 | EC50 (wild type NL-4.3; MT-4 cells, 6 days incubation, MTT): 5800 nM |
| CN(O)C(=O)c1ncc(C(O)c2ccc(F)cc2)c(CO)c1O (stereo not drawn) [Example 5, 5-((4-fluorophenyl)(hydroxy)methyl)-N,3-dihydroxy-4-(hydroxymethyl)-N-methylpicolinamide] | 421 |  |  |
| O=C(NO)c1ncc([C@H](O)c2ccc(F)c(Cl)c2)c(CO)c1O [Example 1, (R)-5-((3-Chloro-4-fluorophenyl)(hydroxy)methyl)-N,3-dihydroxy-4-(hydroxymethyl)picolinamide] | 4 | 7.25 | Fold-change with HS (NL4.3 virus): 1; EC50 (NL4.3 virus; read-out: EC50 (uM) 10% FBS): 0.006 µM; EC50 (NL4.3 virus; [3]): 0.006 µM |
| Cc1c(C(=O)c2ccc(F)cc2)cnc(C(=O)NO)c1O [Example 9, 5-(4-fluorobenzoyl)-N,3-dihydroxy-4-methylpicolinamide] | 6680 |  |  |
| CONC(=O)c1ncc(C(O)c2ccc(F)cc2)c(CO)c1O (stereo not drawn) [Example 6, 5-((4-fluorophenyl)(hydroxy)methyl)-3-hydroxy-4-(hydroxymethyl)-N-methoxypicolinamide] | 74 |  |  |
| O=C(NO)c1ncc(Cc2ccc(F)cc2)c(CO)c1O [Example 2, 5-(4-fluorobenzyl)-N,3-dihydroxy-4-(hydroxymethyl)picolinamide] | 10 | 7.46 |  |
| O=C(NO)c1ncc(C(O)c2ccc(F)cc2)c(CO)c1O (stereo not drawn) [Example 3, 5-((4-fluorophenyl)(hydroxy)methyl)-N,3-dihydroxy-4-(hydroxymethyl)picolinamide] | 2 |  |  |
| Cc1nnc(C(=O)NC(C)(C)c2nc(C(=O)NCc3ccc(F)cc3)c(O)c(=O)n2C)o1 [Raltegravir, reference compound] |  |  | EC50 (wild type NL-4.3; Human immunodeficiency virus 1, MT4, 144 h): 20 nM; EC50 (NL4.3 virus; read-out: EC50 (uM) 10% FBS): 0.047 µM; EC50 (NL4.3 virus; [3]): 0.064 µM |
| Cc1c(C(O)c2ccc(F)cc2)cnc(C(=O)NO)c1O (stereo not drawn) [Example 8, 5-((4-fluorophenyl)(hydroxy)methyl)-N,3-dihydroxy-4-methylpicolinamide] | 8 |  |  |
